Reference: US20050043264A1, “Methods of inhibiting neurodegenerative disease” (priority 2003, published 2005)
“Also recorded” adds a separate entry of the source. Counter-ions that a name gives are not always drawn.

Tests used:
[1] = system: Dp35; test: Dp35 cleavage in HA-tagged Dp35 transfected BG2-c2 cells (anti-HA immunoblot); assay type: cell-based, Drosophila melanogaster; settings: BG2-c2 cells with HA-tagged Dp35, A23187 with 5 μM CaCl2, 24 hours
Description: Like Abl, p35 is conserved in Drosophila and functions to modulate Cdk5 activity during neurite outgrowth (Connell-Crowley et al., 2000, Curr. Biol. 10:599). In the AD brain, mammalian p35 is cleaved into p25 by calpain to deregulate Cdk5 (Lee et al., 2000, Nature 405:360). Although a putative calpain is also present in Drosophila (Jekely and Friedrich, 1999, J. Biol. Chem. 274:23893), the consensus calpain cleavage site is absent in Drosophila p35 (Dp35) (FIG. 5A). Therefore, it was unclear whether Dp35 would be converted into p25 upon Aβ42 stimulation. To investigate this possibility, carboxyl-terminal HA-tagged Dp35 was transfected into BG2-c2 cells before treating them with Aβ42or A23187/Ca^2+ (calcium ionophore). […] To analyze the Dp35 cleavage in vivo, transgenic flies co-expressing Dp35 and Aβ42 in the developing eyes were generated using a gmr-GAL4 driver. Consistent with the in vitro result, no visible cleavage or reduction of the Dp35 protein in the Aβ42 transgenic flies were observed (FIG. 5B, right panel).

[2] = system: Cdk5; test: Cdk5 kinase activity in Aβ42-treated IMR-32 cells (histone H1 kinase assay); assay type: cell-based, human; settings: Aβ42 (20 μM) 24 hours, STI571 pretreatment 24 hours
Experimental: (§1) A kinase assay was performed by washing immunoprecipitates three times with kinase reaction buffer (50 mM HEPES [pH 7.0], 10 mM MgCl2, and 1 mM DTT). The beads with target proteins were incubated with kinase reaction buffer containing 2 μg of substrate (histone H1)(Calbiochem, San Diego, Calif.) and 10 μCi of ^33Pγ-ATP in a final volume of 40 μl at 30° C. for 30 minutes.
(§2) To determine if the role of Abl in Drosophila neurodegeneration is conserved in mammals, Abl kinase activity in Aβ42-induced mammalian neuronal apoptosis was investigated. […] Formation of p25 has been considered a causative agent that contributes to the deregulation of Cdk5 in human AD (Lee et al., 2000, Nature 405:360; Patrick et al., 1999, Nature 402:615). […] Thus, it was important to determine whether the conversion of p35 into p25 is sufficient to deregulate Cdk5 activity while Abl activation is inhibited. […] The cells were then assayed for Cdk5 kinase activity and Y-15 phosphorylation.

[3] = system: Cdk5-pY15; test: Cdk5-pY15 in Aβ42-treated IMR-32 cells (immunoblot); assay type: cell-based, human; settings: Aβ42 (20 μM) 24 hours, STI571 pretreatment 24 hours
Experimental: (§3) Cell lysate was produced in lysis buffer or extract buffer (Juang and Hoffmann,1999, Oncogene 18:5138) for Cdk5 immunoprecipitation. Proteins were analyzed by direct Western blotting (30 μg/lane) or blotting after immunoprecipitation (1˜2 mg/immunoprecipitation). Immunoprecipitates were collected by binding to protein G PLUS/Protein A-Agarose (Oncogene Research Products, Nottingham UK). The antibodies used are listed below: anti-Cdk5 antibody (clone DC17), (Upstate, Charlottesville, Va.); sc-750, (Santa Cruz Biotechnology, Inc., Santa Cruz Calif.), anti-Cdk5-pY15 antibody (sc-1 2919),(Santa Cruz Biotechnology, Inc., Santa Cruz C), anti-HA antibody (BAbCO, Berkely, Calif.), anti-p35 antibody (sc-820), (Santa Cruz Biotechnology, Inc., Santa Cruz Calif.), and affinity-purified Ena polyclonal antibody (generated by Dr. F. M. Hoffmann' Lab) (McArdle Laboratory for Cancer Research and Laboratory of Genetics, University of Wisconsin-Madison) ECL detection reagent (NEN, Boston, Mass.) was used to detect the immunoreactive proteins.
(§4) To determine if the role of Abl in Drosophila neurodegeneration is conserved in mammals, Abl kinase activity in Aβ42-induced mammalian neuronal apoptosis was investigated. […] Formation of p25 has been considered a causative agent that contributes to the deregulation of Cdk5 in human AD (Lee et al., 2000, Nature 405:360; Patrick et al., 1999, Nature 402:615). […]

[4] = system: p35; test: Cleavage of p35 into p25 in Aβ42-treated IMR-32 cells (immunoblot); assay type: cell-based, human; settings: Aβ42 (20 μM) 24 hours, STI571 pretreatment 24 hours
Experimental: as §3, §4

[5] = system: BG2-c2 cells; test: Modified MTT cell viability assay, Aβ42-induced neuronal death; assay type: cell-based, Drosophila melanogaster; settings: BG2-c2 cells treated with Aβ42; dsRNA transfected two days before Aβ42 for 24 hours
Experimental: (§5) The modified MTT assay (Sigma, St Louis, Mo.) was used to quantify neuronal cell viability (Lee et al., 2000, Nature 405:360). The intensities were measured using an optical density reader (SpectroMAXplus, Molecular Devices, Sunnyvale, Calif.) at 570 nm (background: 630 nm) and proportionally represented the viable cell numbers.

[6] = system: Cdk5; test: In vitro Cdk5 kinase assay of immunoprecipitates with histone H1 as substrate, BG2-c2 cells; assay type: cell-based, Drosophila melanogaster; settings: for Abl kinase activity regulation, used to confirm Abl requirement for modulation of Cdk5 kinase: BG2-c2 cells, other Abl kinase regulating agents
Experimental: as §1
Whether Cdk5 was activated in the Abl-Cdk5 complex was also investigated. Cdk5 was immunoprecipitated from the cell lysate for an vitro kinase assay, using histone H1 as a substrate (Connell-Crowley et al., 2000, Curr. Biol. 10:599). Similar to results reported for mammalian cells (Alvarez et al., 2001, Exp. Cell Res. 264:266), Drosophila Cdk5 kinase activity was elevated following Aβ42 treatment as compared to controls (FIG. 2B, bottom panel). […] Moreover, other Abl kinase regulating agents including doxorubicin (DX) and erbstatin analog (EA) were used to activate or suppress Abl kinase activity, respectively, and confirmed that Abl kinase activity was required for modulation of Cdk5 kinase.

[7] = system: Cdk5-pY15; test: Cdk5-Y15 phosphorylation (Cdk5-pY15) immunoblot, BG2-c2 cells; assay type: cell-based, Drosophila melanogaster; settings: Aβ42 (2 μM)-treated BG2-c2 cells; STI571 20 μM 60 minutes; dsRNA 20 μg/2×10^6 cells two days before Aβ42
Experimental: To understand the role of Drosophila Cdk5 in neurodegeneration, the phosphorylation of Cdk5-Y15 was investigated to determine if it was correlated with the pathological activation of Cdk5 in neuronal cells. Cdk5-Y15 phosphorylation (Cdk5-pY15) levels in BG2-c2 cells were examined over time following treatment with 2 μM Aβ42. The presence of […] in the immunoprecipitates was shown by immunoblotting with an anti-phospho antibody specific for Cdk5-pY15. Within 60 minutes, Aβ42 caused an elevation of Cdk5-pY15, which was coincident with an increase in Cdk5 kinase activity (FIG. 4A). […] Moreover, dsRNA-abl (20 μg/2×10^6 cells) was transfected into BG2-c2 cells to reduce Abl expression two days before Aβ42 treatment.

[8] = system: BG2-c2 neuronal cells; test: Cdk5 subcellular translocalization by immunostaining and confocal microscopy; assay type: cell-based, Drosophila melanogaster; settings: 2 μM Aβ42 one hour, agent given simultaneously with or before Aβ42 (BL-1 5 μM)
[9] = system: IMR-32 cells; test: Neuronal viability, Aβ42-induced IMR-32 neuronal death; assay type: cell-based, human; settings: IMR-32 cells pretreated 24 hours with STI571, then Aβ42 24 or 72 hours
Experimental: as §5, §2

CNc1ccc2oc(C[C@H]3O[C@@]4(CC[C@H]3C)O[C@H]([C@H](C)C(=O)c3ccc[nH]3)[C@H](C)C[C@H]4C)nc2c1C(=O)O [A23187]
Dp35 cleavage / Dp35 protein levels [1]: no noticeable cleavage or reduction; also recorded: no detectable cleavage or reduction

CCCC[C@@H](C=O)NC(=O)[C@H](CC(C)C)NC(=O)OCc1ccccc1 [Calpeptin]
Cdk5 kinase activity [2]: considerably reduced
Cdk5-pY15 (Y15 phosphorylation) [3]: did not diminish
Cleavage of p35 into p25 (formation of p25) [4]: blockade of p35 cleavage

Cc1ccc(NC(=O)c2ccc(CN3CCN(C)CC3)cc2)cc1Nc1nccc(-c2cccnc2)n1 [STI571, imatinib mesylate]
Aβ42-induced neuronal death (neuronal viability, MTT) [5]: rescued Aβ42-induced neuronal death; also recorded: suppressed
Cdk5 kinase activity (histone H1 phosphorylation) ([6]; Aβ42 (2 μM)-treated BG2-c2 cells, STI571 20 μM 60 minutes, dsRNA 20 μg/2×10^6 cells two days before Aβ42): sharply diminished; also recorded: reduced
Cdk5-pY15 (Cdk5-Y15 phosphorylation) [7]: diminished; also recorded: reduced
Aβ42-stimulated Cdk5 translocalization to the perinuclear cytoplasm [8]: markedly suppressed; also recorded: no Abl or Cdk5 protein translocalization to perinuclear region
Aβ42-induced IMR-32 neuronal death (neuronal viability) [9]: rescued the neuronal death; also recorded: effectively suppressed
Cdk5 kinase activity [2]: abolished; also recorded: suppressed
Cdk5-pY15 (Y15 phosphorylation) [3]: abolished; also recorded: suppressed

COc1cccc2c1C(=O)c1c(O)c3c(c(O)c1C2=O)C[C@@](O)(C(=O)CO)C[C@@H]3O[C@H]1C[C@H](N)[C@H](O)[C@H](C)O1 [doxorubicin]
Abl kinase activity regulation, used to confirm Abl requirement for modulation of Cdk5 kinase [6]: activate

COC(=O)C=Cc1cc(O)ccc1O [erbstatin analog, 2,5-dihydroxymethylcinnamate]
Abl kinase activity regulation, used to confirm Abl requirement for modulation of Cdk5 kinase [6]: suppress
